We go through four molecules from ChEMBL document CHEMBL1152140 (Bioorg Med Chem Lett, 2008).

Assay [1] addresses T1, Prostaglandin G/H synthase 1 (Ovis aries, UniProt P05979).
T1 sequence (P05979 whole entry): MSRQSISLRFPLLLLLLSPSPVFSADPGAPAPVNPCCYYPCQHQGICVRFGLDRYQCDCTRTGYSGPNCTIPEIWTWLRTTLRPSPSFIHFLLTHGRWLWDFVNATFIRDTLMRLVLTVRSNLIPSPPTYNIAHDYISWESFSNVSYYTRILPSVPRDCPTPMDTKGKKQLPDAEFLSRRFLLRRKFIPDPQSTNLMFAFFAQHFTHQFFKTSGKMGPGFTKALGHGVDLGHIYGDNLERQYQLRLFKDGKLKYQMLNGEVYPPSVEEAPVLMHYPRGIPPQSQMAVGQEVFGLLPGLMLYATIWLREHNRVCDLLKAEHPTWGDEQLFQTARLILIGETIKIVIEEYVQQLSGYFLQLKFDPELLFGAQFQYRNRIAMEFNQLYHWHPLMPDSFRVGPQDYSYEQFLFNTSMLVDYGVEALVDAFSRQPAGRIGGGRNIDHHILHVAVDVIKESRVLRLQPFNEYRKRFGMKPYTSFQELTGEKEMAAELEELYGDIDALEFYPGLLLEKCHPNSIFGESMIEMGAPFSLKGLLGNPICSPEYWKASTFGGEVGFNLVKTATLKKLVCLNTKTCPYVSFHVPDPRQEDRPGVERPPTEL
Description: Inhibition of ovine COX1 by enzyme immuno assay

A short description of assay [2]: Inhibition of potato LOX5 by enzyme immuno assay. On the set-up: species or system Solanum tuberosum.
A further assay deals with Rattus norvegicus. Put plainly: Antiinflammatory activity against carrageenan-induced orally dosed rat assessed paw edema after 3 hrs. The following applies: po. The format is functional.

Consider `CS(=O)(=O)c1ccc(-n2nc(C(F)(F)F)cc2-c2ccn(O)c(=O)c2)cc1`, for which the IC50 (as a rule, the concentration at which inhibition is half-maximal) was 13.2 µM in assay [1] and 0.35 µM in assay [2]. Further, in the assay on Rattus norvegicus, the ED50 (in general, the midpoint of the dose-response relation) is 66.9 mg/kg.

As to `NS(=O)(=O)c1ccc(-n2nc(C(F)(F)F)cc2-c2ccn(O)c(=O)c2)cc1`, the IC50 in assay [1] came to 10.2 µM; in assay [2], 4.9 µM. This molecule registered an ED50 in the assay on Rattus norvegicus of 99.8 mg/kg.

`O=C(O)/C=C/c1ccc(O)c(O)c1` [CAFFEIC ACID] registered an IC50 in assay [2] of 3.47 µM.

The molecule `Cc1ccc(-c2cc(C(F)(F)F)nn2-c2ccc(S(N)(=O)=O)cc2)cc1` [CELECOXIB] gave an IC50 in assay [2] of over 10 µM.
